Laboratory results published in patent publication US20240277637A1, “CAPSAICIN DERIVATIVES IN THE TREATMENT OF IDIOPATHIC PULMONARY FIBROSIS” (aXichem AB, priority 2021, published 2024).

Tests used:
Format in all cases: cell-based
Details in all cases: 10 ng/ml PDGF-AB, 14 days
[1] = tested on: human corneal epithelial cells; experiment: Clonogenic cell survival assay, corneal epithelial cells with PDGF-AB (Example 1)
Procedure: Primary isolated human corneal epithelial cells; Normal, Human cells (ATCC® PCS-700-010™) were maintained in culture at 37° C. with 5% CO2 and 95% humidity in serum reduced (5% fetal calf serum) modified promocell media (MPM) supplemented with 4 ng/ml fibronectin (FN), 2 ng/ml human recombinant vascular endothelial growth factor (VEGF) and 4 ng/ml basic fibroblast growth factor (bFGF).
A clonogenic cell survival assay determines the ability of a cell to proliferate indefinitely. The effects of phenylcapsaicin (2) on clonogenic survival of corneal epithelial cells was investigated by plating the cells with increasing numbers (102 to 5×104) in 25 cm^2 flasks. SU9518, a known inhibitor PDGF that has shown the ability to reduce radiation-induced fibroblast and endothelial cell activation, was used as the positive control. The cells were incubated with 0-10 μM of phenylcapsaicin and SU9518 separately in the presence of 10 ng/ml PDGF-AB. The flasks were returned to the incubator for 14 days, after which they were stained with crystal violet. The colonies were counted, and the surviving

[2] = tested on: human bronchial epithelial cells; experiment: Clonogenic cell survival assay, bronchial epithelial cells with PDGF-AB (Example 2)
Procedure: Primary isolated human bronchial epithelial cells (NHBE) (Normal, Human (ATCC® BEAS-2B™)) were cultured up to passage 6. […].
A clonogenic cell survival assay determines the ability of a cell to proliferate indefinitely. The effects of phenylcapsaicin on clonogenic survival of bronchial epithelial cells was investigated by plating the cells with increasing numbers (10^2 to 5×10^4) in 25 cm^2 flasks. SU9518, a known inhibitor for PDGF which has shown the ability to reduce radiation-induced fibroblast and endothelial cell activation, was used as the positive control. The cells were incubated with 0-10 μM of phenylcapsaicin and SU9518 separately in the presence of 10 ng/ml PDGF-AB. The flasks were returned to the incubator for 14 days, after which they were stained with crystal violet. The colonies were counted, and the surviving percentage was determined for clonogenic survival after correcting for plating efficiency.

[3] = tested on: human bronchial epithelial cells; experiment: Clonogenic cell survival assay, bronchial epithelial cells with PDGF-AB (Example 3)
Procedure: (§1) Primary isolated human bronchial epithelial cells (NHBE) were used in this assay sourced from the American Tissue Culture Collection (Normal, Human (ATCC® BEAS-2B™)) and were cultured up to passage 6. […].
A clonogenic cell survival assay determines the ability of a cell to proliferate indefinitely. Cells were plated with increasing numbers (102 to 5×10^4) in 25 cm^2 flasks. SU9518, SU9518, a known inhibitor PDGF that has shown the ability to reduce radiation-induced fibroblast and endothelial cell activation, and phenylcapsaicin were used as positive controls. The cells were incubated with 0-10 μM (3% DMSO aqueous) of phenylcapsaicin, SU9518, and compounds 1 and 3-7 separately in the presence of 10 ng/ml PDGF-AB (Sigma Aldrich). The flasks were returned to the incubator for 14 days, after which they were stained with crystal violet (Sigma Aldrich). The colonies were counted and the surviving percentage was determined for clonogenic survival after correcting for plating efficiency.

[4] = tested on: human bronchial epithelial cells; experiment: Clonogenic cell survival assay, bronchial epithelial cells with PDGF-AB (Example 4)
Procedure: as §1
The effects of Phenylcapsaicin (2) on clonogenic survival of bronchial epithelial cells, by plating the cells with increasing numbers (102 to 5×104) in 25 cm^2 flasks were investigated. SU9518* and Phenylcapsaicin were used as positive controls. The cells were incubated with 0-10 μM (3% DMSO aqueous) of Phenylcapsaicin, SU9518, and compounds 8-12 separately in the presence of 10 ng/ml PDGF-AB (Sigma Aldrich). The flasks were returned to the incubator for 14 days, after which they were stained with crystal violet (Sigma Aldrich). The colonies were counted and the surviving percentage was determined for clonogenic survival after correcting for plating efficiency. The synthetic analogs were all calculated at 100% purity for molar concentrations.

With `Cc1[nH]c(/C=C2\C(=O)Nc3ccc(Br)cc32)c(C)c1CCC(=O)O` [SU9518, reference compound] the “effect on clonogenic survival” value ([1]; 0-10 μM) was “dose dependent reduction in cell survival”, the “surviving fraction of epithelial cells” value ([1]; 5 μM) was 30% and the “effect on clonogenic survival” value ([2]; 0-10 μM) was “dose dependent reduction in cell survival”. The “surviving fraction of epithelial cells” value ([2]; 5 μM) was 33%, the “Clonogenic Survival Assay (percent)” value ([3]; 0.10 μM) was 80% and the “Clonogenic Survival Assay (percent)” value ([3]; 0.50 μM) was 65%. For the same compound, the “Clonogenic Survival Assay (percent)” value ([3]; 1.00 μM) was 59%, the “Clonogenic Survival Assay (percent)” value ([3]; 2.00 μM) was 41% and the “Clonogenic Survival Assay (percent)” value ([3]; 5.00 μM) was 33%. For the same compound, the “Clonogenic Survival Assay (percent)” value ([3]; 10.00 μM) was 22%, the “Clonogenic Survival Assay (percent)” value ([4]; 0.10 uM) was 80% and the “Clonogenic Survival Assay (percent)” value ([4]; 0.50 uM) was 65%. For the same compound, the “Clonogenic Survival Assay (percent)” value ([4]; 1.00 uM) was 59%, the “Clonogenic Survival Assay (percent)” value ([4]; 2.00 uM) was 41% and the “Clonogenic Survival Assay (percent)” value ([4]; 5.00 uM) was 33%. For the same compound, the “Clonogenic Survival Assay (percent)” value ([4]; 10.00 uM) was 22%.
